Test results as given in patent US20160137639A1, “TRIAZOLE-ISOXAZOLE COMPOUND AND MEDICAL USE THEREOF” (JAPAN TOBACCO INC., priority 2012, published 2016).
Where two headings read alike, the source gives them in different places.

What was measured:
human RORγ = target: T1, human RORγ (Homo sapiens, UniProt P51449); assay: Luciferase reporter gene assay of inhibitory effect against RORγ transcriptional activity (GAL4-hRORγ plasmid in CHO cells); format: cell-based
T1 construct: human, NM_005060.3 and from Ser253 to Lys518; expressed in transfected cells; host or cells: CHO cells (transient co-transfection with pG5-Luc reporter)
T1 sequence (P51449 253-518): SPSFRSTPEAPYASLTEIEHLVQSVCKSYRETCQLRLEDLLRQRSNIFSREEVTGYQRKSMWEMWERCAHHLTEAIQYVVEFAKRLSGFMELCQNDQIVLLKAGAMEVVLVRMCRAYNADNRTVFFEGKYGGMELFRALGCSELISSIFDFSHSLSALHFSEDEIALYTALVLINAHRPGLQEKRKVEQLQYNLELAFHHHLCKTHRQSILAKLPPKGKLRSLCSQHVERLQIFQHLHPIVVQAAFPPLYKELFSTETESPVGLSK

mouse RORγ = target: T2, mouse RORγ (Mus musculus, UniProt P51450); assay: Luciferase reporter gene assay of inhibitory effect against RORγ transcriptional activity (GAL4-mRORγ plasmid in CHO cells); format: cell-based
T2 construct: mouse, NM_011281.2 and from Ile251 to Lys516; expressed in transfected cells; host or cells: CHO cells (transient co-transfection with pG5-Luc reporter)
T2 sequence (P51450 251-516): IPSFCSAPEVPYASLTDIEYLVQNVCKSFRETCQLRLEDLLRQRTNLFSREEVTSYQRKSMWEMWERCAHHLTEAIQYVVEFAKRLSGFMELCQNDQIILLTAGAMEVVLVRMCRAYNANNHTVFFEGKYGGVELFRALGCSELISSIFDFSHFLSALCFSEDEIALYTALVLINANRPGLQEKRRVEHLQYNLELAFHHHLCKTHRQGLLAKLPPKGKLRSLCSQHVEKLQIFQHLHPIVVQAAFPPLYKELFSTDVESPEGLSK
How it was run: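 CHO cells transiently co-transfected with GAL4-mouse RORγ LBD (Ile251–Lys516) and GAL4-dependent luciferase reporter; eight compound concentrations, 0.1% DMSO, 2 days at 37 °C. Luminescence as %-of-vehicle control; EC50 by curve fit, cytotoxic concentrations excluded.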

Compound	EC50 (human RORγ; read-out: LUC EC50 (μM) hRORg)	EC50 (mouse RORγ; read-out: LUC EC50 (μM) mRORg)	EC50 (human RORγ; read-out: LUC EC50 hRORg)	EC50 (mouse RORγ; read-out: LUC EC50 mRORg)
Cc1cc(F)ccc1NC(=O)C[C@H](CCC(=O)O)c1noc(-c2cc(CCC(C)(C)C)on2)c1C1CC1 [Example E-37]	< 3 µM	< 3 µM		
CC(=O)N1C[C@H](C(=O)Nc2ccc(C)cc2C)[C@@H](c2nnc(CCC(C)(C)C)n2C2CC2)C1 (racemic) [Example F-223]	< 3 µM	< 3 µM		
Cc1ccc(NC(=O)CCc2noc(CCCC(C)(C)C)c2C2CC2)c(Cl)c1 [Example F-729]			< 3 µM	< 3 µM
Cc1ccc(NC(=O)C[C@H](CCC(=O)O)c2noc(-c3cc(C4(C)CCCC4)on3)c2C2CC2)c(Cl)c1 [Example E-42]	< 3 µM	< 3 µM		
CC(C)CCc1nnc(CCC(=O)Nc2cc(F)cc(Cl)c2)n1C1CC1 [Example F-109]	> 3 µM	> 3 µM		
C#CCC(CC(=O)Nc1ccc(C)cc1C)c1nnc(CCCC(C)(C)C)n1C1CC1 (racemic) [Example F-437]	< 3 µM	< 3 µM		
Cc1cc(O)ccc1CNC(=O)CCc1nnc(CCC(C)C)n1C1CC1 [Example F-114]	> 3 µM	> 3 µM		
CC(=O)N1C[C@H](C(=O)Nc2ccc(C)cc2C)[C@@H](c2nnc(-c3cc(CCC(C)C)on3)n2C2CC2)C1 [Example F-632]			< 3 µM	< 3 µM
Cc1ccc(NC(=O)[C@H]2CCCN(C(=O)CO)[C@@H]2c2nnc(CCCC(C)(C)C)n2C2CC2)c(C)c1 [Example F-308]	< 3 µM	< 3 µM		
Cc1ccc(NC(=O)C[C@H](OC(C)C)c2nnc(-c3cc(CC(C)C)on3)n2C2CC2)c(C)c1 [Example F-575]			< 3 µM	< 3 µM
CC(=O)N1C[C@H](C(=O)Nc2ccc(C)cc2C)[C@@H](c2nnc(CCOC(C)(C)C)n2C2CC2)C1 (racemic) [Example F-222]	> 3 µM	< 3 µM		
COc1cc(C)ccc1CNC(=O)[C@H]1CN(C(C)=O)C[C@@H]1c1nnc(CCCC(C)C)n1C1CC1 (racemic) [Example F-279]	< 3 µM	< 3 µM		
COc1cc(C)ccc1CNC(=O)CCc1noc(C23CC4CC(CC(C4)C2)C3)c1C1CC1 [Example F-735]			< 3 µM	< 3 µM
Cc1ccc(NC(=O)CCc2noc([C@H]3C[C@@H](CC(C)(C)C)C3)c2C2CC2)c(C)c1 [Example F-721]			< 3 µM	< 3 µM
CC(C)CCc1nnc(CCC(=O)NCc2ccccc2Cl)n1C1CC1 [Example F-121]	> 3 µM	> 3 µM		
CC(=O)NCCCC(CC(=O)Nc1ccc(C)cc1C)c1nnc(CCCC(C)C)n1C1CC1 (racemic) [Example F-287]	> 3 µM	> 3 µM		
Cc1ccc(NC(=O)[C@H]2CN(S(=O)(=O)C(F)F)C[C@@H]2c2nnc([C@H]3C[C@@H](CC(C)(C)C)C3)n2C2CC2)c(C)c1 [Example F-550]			< 3 µM	< 3 µM
Cc1c(Cl)cccc1NC(=O)CCc1nnc(CCN2CCCCC2)n1C1CC1 [Example F-169]	> 3 µM	> 3 µM		
CCc1ccccc1CNC(=O)CCc1nnc(CCC(C)C)n1C1CC1 [Example F-125]	> 3 µM	> 3 µM		
Cc1ccc(NC(=O)C[C@@H](Cc2nccs2)c2nnc([C@H]3C[C@@H](CC(C)C)C3)n2C2CC2)c(C)c1 [Example F-476]	< 3 µM	< 3 µM		
Cc1ccc(NC(=O)C[C@H](CCC(=O)O)c2noc(-c3noc(CC(C)C)n3)c2C2CC2)c(Cl)c1 [Example E-11]	< 3 µM	< 3 µM		
CC(=O)N1C[C@@H](C(=O)Nc2ccc(C)cc2C)[C@H](c2nnc(CCC3CCCCC3)n2C2CC2)C1 [Example F-375]	> 3 µM	> 3 µM		
Cc1ccc(NC(=O)C[C@@H](CCO)c2nnc(CCCC(C)(C)C)n2C2CC2)c(C)c1 [Example F-326]	> 3 µM	> 3 µM		
CC(C)Cc1cc(-c2nnc([C@H](CC(=O)Nc3cccc4c3OC(F)(F)O4)OC(C)C)n2C2CC2)no1 [Example F-584]			> 3 µM	< 3 µM
Cc1ccc(NC(=O)[C@H]2CN(C)C[C@@H]2c2nnc([C@H]3C[C@@H](CC(C)(C)C)C3)n2C2CC2)c(C)c1 [Example F-549]			< 3 µM	< 3 µM

Compound	EC50 (human RORγ; read-out: LUC EC50 (μM) hRORg)	EC50 (mouse RORγ; read-out: LUC EC50 (μM) mRORg)	EC50 (human RORγ; read-out: LUC EC50 hRORg)	EC50 (mouse RORγ; read-out: LUC EC50 mRORg)
CC(=O)N1C[C@H](C(=O)Nc2ccc(C)cc2C)[C@@H](c2nnc([C@H]3C[C@H](OC(C)C)C3)n2C2CC2)C1 (racemic) [Example F-329]	> 3 µM	> 3 µM		
Cc1cc(Cl)ccc1NC(=O)C[C@H](OC(C)C)c1nnc(-c2cc(CC(C)C)on2)n1C1CC1 [Example F-614]			< 3 µM	< 3 µM
CCn1c(CCC(=O)Nc2cccc3ccccc23)nnc1CCC(C)(C)C [Example F-25]	> 3 µM	< 3 µM		
Cc1ccc(NC(=O)[C@H]2CN(C(=O)N3CCN(C)CC3)C[C@@H]2c2nnc([C@H]3C[C@@H](CC(C)(C)C)C3)n2C2CC2)c(C)c1 [Example F-651]			< 3 µM	< 3 µM
Cc1ccc(NC(=O)C[C@H](CC(F)(F)F)c2nnc(-c3cc(CC(C)C)on3)n2C2CC2)c(C)c1 [Example F-567]			< 3 µM	< 3 µM
CC(C)(C)Cc1cc(-c2noc([C@@H](CCC(=O)O)CC(=O)Nc3ccc(Cl)cc3F)c2C2CC2)no1 [Example E-76]	< 3 µM	< 3 µM		
Cc1c(Cl)cccc1NC(=O)CCc1nnc(CC(=O)O)n1C1CC1 [Example F-264]	> 3 µM	> 3 µM		
Cc1ccc(NC(=O)[C@@H]2C[C@H](O)C[C@H]2c2nnc([C@H]3C[C@@H](CC(C)C)C3)n2C2CC2)c(C)c1 [Example F-471]	> 3 µM	> 3 µM		
Cc1cc(F)ccc1NC(=O)C[C@H](CCO)c1nnc([C@H]2C[C@@H](CC(C)C)C2)n1C1CC1 [Example F-594]			< 3 µM	< 3 µM
Cc1ccc(NC(=O)CCc2noc(C3(CCO)CC(CC(C)(C)C)C3)c2C2CC2)c(Cl)c1 (mixture of isomers) [Example F-742]			> 3 µM	> 3 µM
CC(=O)N1C[C@H](C(=O)Nc2ccc(C)cc2C)[C@@H](c2nnc(CCCC(C)(C)C)n2CC(F)(F)F)C1 [Example F-392]	< 3 µM	< 3 µM		
Cc1ccc(NC(=O)C[C@H](CCC(=O)O)c2noc(-c3cc(CCC(C)C)on3)c2C(F)(F)F)c(Cl)c1 [Example E-16]	< 3 µM	< 3 µM		
COc1cc(C)ccc1CNC(=O)CCc1nnc(CCC2(C)CCCCC2)n1C1CC1 [Example F-270]	< 3 µM	< 3 µM		
Cc1ccc(NC(=O)C[C@H](CCC(=O)O)c2noc(-c3cc(C(C)(C)C(F)(F)F)on3)c2C2CC2)c(Cl)c1 [Example E-54]	< 3 µM	< 3 µM		
Cc1ccc(NC(=O)[C@H]2C[C@@H](O)C[C@@H]2c2nnc([C@H]3C[C@@H](CC(C)C)C3)n2C2CC2)c(C)c1 (racemic) [Example F-431]	< 3 µM	< 3 µM		
Cc1c(NC(=O)CCc2nnc(CCC(C)C)n2C2CC2)cccc1C(F)(F)F [Example F-99]	> 3 µM	< 3 µM		
CC(=O)N1C[C@@H](C(=O)Nc2ccc(C)cc2C)[C@H](c2nnc([C@H]3C[C@@H](OC(C)C)C3)n2C2CC2)C1 [Example F-337]	> 3 µM	> 3 µM		
Cc1cc(Cl)ccc1NC(=O)C[C@H](CCO)c1nnc(-c2cc(CC(C)C)on2)n1C1CC1 [Example F-660]			< 3 µM	< 3 µM
Cc1ccc(NC(=O)C[C@@H](CC#N)c2nnc([C@H]3C[C@@H](CC(C)C)C3)n2C2CC2)c(C)c1 [Example F-464]	> 3 µM	< 3 µM		
Cc1ccc(NC(=O)C[C@H](CCC(=O)O)c2noc([C@H]3C[C@@H](CC(C)(C)C(=O)O)C3)c2C2CC2)c(Cl)c1 [Example F-727]			> 3 µM	> 3 µM
Cc1ccc(NC(=O)C[C@H](CCC(=O)O)c2noc(-c3cn(CCC(C)(C)C)nc3C(F)(F)F)c2C2CC2)c(F)c1 [Example E-19]	> 3 µM	> 3 µM		
Cc1ccc(NC(=O)CC(CC(=O)O)c2nnc(CCCC(C)C)n2C2CC2)c(C)c1 (racemic) [Example F-252]	> 3 µM	> 3 µM		
CC(C)(C)Cc1cc(-c2onc([C@@H](CCC(=O)O)CC(=O)Nc3ccc(Cl)cc3Cl)c2C2CC2)no1 [Example E-58, Sodium (S)-4-[4′-cyclopropyl-5-(2,2-dimethyl-propyl)-[3,5′]biisoxazolyl-3′-yl]-5-(2,4-dichloro-phenylcarbamoyl)-pentanoate]	< 3 µM	< 3 µM		
C=CCC(CC(=O)Nc1cccc(Cl)c1C)c1nnc(CCCC(C)C)n1C1CC1 (racemic) [Example F-197]	< 3 µM	< 3 µM		
Cc1ccc(NC(=O)CC(CC#N)c2nnc(CCCC(C)(C)C)n2C2CC2)c(C)c1 (racemic) [Example F-440]	< 3 µM	< 3 µM		
